From PubChem BioAssay AID2060506 (Molecular Pharmacology Branch, DTP, NCI, 2025)
Blank lines part the entries; values can stand above or below the compound they belong to.

Test system: 598228-144-R-J1-PDC complex spheroid viability
Test: Anticancer human tumor 598228-144-R-J1-PDC patient-derived serous endometrial adenocarcinoma cell line growth inhibition [GQUAD]
Conditions: for IC50: curve of first compound; for viability, T/C: stronger effect = lower value
Procedure, shortened: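 Tumor cells were grown as complex spheroids with HUVEC endothelial cells and mesenchymal stem cells as stroma. G-quadruplex stabilizers were combined with targeted agents over half-log dilutions from near the clinical Cmax, or from 10 microM.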

[1] = second compound 0.0316 µM, first compound 0.0316 µM
[2] = second compound 0.0316 µM, first compound 0.316 µM
[3] = second compound 0.1 µM, first compound 0.0316 µM
[4] = second compound 0.1 µM, first compound 0.316 µM
[5] = second compound 0.316 µM, first compound 0.0316 µM
[6] = second compound 0.316 µM, first compound 0.316 µM
[7] = second compound 1 µM, first compound 0.0316 µM
[8] = second compound 1 µM, first compound 0.316 µM
[9] = second compound 3.16 µM, first compound 0.0316 µM
[10] = second compound 3.16 µM, first compound 0.316 µM
[11] = second compound 10 µM, first compound 0.0316 µM
[12] = second compound 10 µM, first compound 0.316 µM
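Also: spheroids exposed to the agents for one week before reading.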
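For viability, T/C in this document: percent of vehicle DMSO control viability so 100% = untreated growth.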

IC50 (second compound 0.0316 µM): 8280 nM
IC50 (second compound 0.1 µM): 793 nM
IC50 (second compound 0.316 µM): 3550 nM
IC50 (second compound 1 µM): 2620 nM
IC50 (second compound 3.16 µM): < 31.6 nM
IC50 (second compound 10 µM): < 31.6 nM
SMILES: CC(C)n1c(=O)n(C)c2cnc3cc(F)c(-c4ccc(OCCCN5CCCCC5)nc4)cc3c21 + Cc1cnc(CNC(=O)c2c(=O)c3ccc(N4CCCN(C)CC4)nc3n3c2sc2ccccc23)cn1
viability, T/C [1]: 58.2%
viability, T/C (second compound 0.0316 µM, first compound 0.1 µM): 78.2%
viability, T/C [2]: 77.8%
viability, T/C (second compound 0.0316 µM, first compound 1 µM): 63.1%
viability, T/C (second compound 0.0316 µM, first compound 3.16 µM): 62.8%
viability, T/C (second compound 0.0316 µM, first compound 10 µM): 47.5%
viability, T/C [3]: 70.2%
viability, T/C (second compound 0.1 µM, first compound 0.1 µM): 57.9%
viability, T/C [4]: 53.4%
viability, T/C (second compound 0.1 µM, first compound 1 µM): 44.3%
viability, T/C (second compound 0.1 µM, first compound 3.16 µM): 61.3%
viability, T/C (second compound 0.1 µM, first compound 10 µM): 36.8%
viability, T/C [5]: 52.1%
viability, T/C (second compound 0.316 µM, first compound 0.1 µM): 50.3%
viability, T/C [6]: 55.1%
viability, T/C (second compound 0.316 µM, first compound 1 µM): 48.8%
viability, T/C (second compound 0.316 µM, first compound 3.16 µM): 52.1%
viability, T/C (second compound 0.316 µM, first compound 10 µM): 36%
viability, T/C [7]: 53.2%
viability, T/C (second compound 1 µM, first compound 0.1 µM): 59.2%
viability, T/C [8]: 59.6%
viability, T/C (second compound 1 µM, first compound 1 µM): 56.5%
viability, T/C (second compound 1 µM, first compound 3.16 µM): 47.5%
viability, T/C (second compound 1 µM, first compound 10 µM): 28.1%
viability, T/C [9]: 50.4%
viability, T/C (second compound 3.16 µM, first compound 0.1 µM): 46%
viability, T/C [10]: 48.3%
viability, T/C (second compound 3.16 µM, first compound 1 µM): 50.5%
viability, T/C (second compound 3.16 µM, first compound 3.16 µM): 38.1%
viability, T/C (second compound 3.16 µM, first compound 10 µM): 3.5%
viability, T/C [11]: 40.7%
viability, T/C (second compound 10 µM, first compound 0.1 µM): 36.6%
viability, T/C [12]: 39.1%
viability, T/C (second compound 10 µM, first compound 1 µM): 29.9%
viability, T/C (second compound 10 µM, first compound 3.16 µM): 25%
viability, T/C (second compound 10 µM, first compound 10 µM): 0.34%

IC50 (second compound 0.0316 µM): > 316 nM
IC50 (second compound 0.1 µM): > 316 nM
IC50 (second compound 0.316 µM): > 316 nM
IC50 (second compound 1 µM): > 316 nM
IC50 (second compound 3.16 µM): > 316 nM
IC50 (second compound 10 µM): < 0.999 nM
SMILES: CC[C@@]1(O)C(=O)OCc2c1cc1n(c2=O)Cc2cc3c(CN(C)C)c(O)ccc3nc2-1 + Cc1cnc(CNC(=O)c2c(=O)c3ccc(N4CCCN(C)CC4)nc3n3c2sc2ccccc23)cn1
viability, T/C (second compound 0.0316 µM, first compound 0.000999 µM): 83.8%
viability, T/C (second compound 0.0316 µM, first compound 0.00316 µM): 107%
viability, T/C (second compound 0.0316 µM, first compound 0.00999 µM): 93.2%
viability, T/C [1]: 81.6%
viability, T/C (second compound 0.0316 µM, first compound 0.0999 µM): 54.8%
viability, T/C [2]: 53.9%
viability, T/C (second compound 0.1 µM, first compound 0.000999 µM): 85.1%
viability, T/C (second compound 0.1 µM, first compound 0.00316 µM): 80.2%
viability, T/C (second compound 0.1 µM, first compound 0.00999 µM): 65.5%
viability, T/C [3]: 68.7%
viability, T/C (second compound 0.1 µM, first compound 0.0999 µM): 64.2%
viability, T/C [4]: 63.6%
viability, T/C (second compound 0.316 µM, first compound 0.000999 µM): 69.2%
viability, T/C (second compound 0.316 µM, first compound 0.00316 µM): 67.9%
viability, T/C (second compound 0.316 µM, first compound 0.00999 µM): 68.8%
viability, T/C [5]: 78.2%
viability, T/C (second compound 0.316 µM, first compound 0.0999 µM): 73.1%
viability, T/C [6]: 76.6%
viability, T/C (second compound 1 µM, first compound 0.000999 µM): 71%
viability, T/C (second compound 1 µM, first compound 0.00316 µM): 72.9%
viability, T/C (second compound 1 µM, first compound 0.00999 µM): 71.1%
viability, T/C [7]: 68.3%
viability, T/C (second compound 1 µM, first compound 0.0999 µM): 75.7%
viability, T/C [8]: 58%
viability, T/C (second compound 3.16 µM, first compound 0.000999 µM): 67.4%
viability, T/C (second compound 3.16 µM, first compound 0.00316 µM): 58.6%
viability, T/C (second compound 3.16 µM, first compound 0.00999 µM): 58.7%
viability, T/C [9]: 52%
viability, T/C (second compound 3.16 µM, first compound 0.0999 µM): 65.6%
viability, T/C [10]: 59.4%
viability, T/C (second compound 10 µM, first compound 0.000999 µM): 42.5%
viability, T/C (second compound 10 µM, first compound 0.00316 µM): 41.2%
viability, T/C (second compound 10 µM, first compound 0.00999 µM): 47.7%
viability, T/C [11]: 52.3%
viability, T/C (second compound 10 µM, first compound 0.0999 µM): 36%
viability, T/C [12]: 40.9%
